Reference: patent US20100022656A1, “OPTICALLY ACTIVE PHENYLETHANOL AMINES AND PREPARING METHOD THEREOF” (SHENYANG PHARMACEUTICAL UNIVERSITY, priority 2006, published 2010)

Target: T1, β2-receptor (Cavia porcellus, UniProt Q8K4Z4)
T1 construct: Trachea was removed and cut from thyroid cartilage to trachea crotch; from tissue; host or cells: guinea pig (Hartley) isolated trachea strips
Assay: Antagonistic effect on isolated trachea strip constriction induced by histamine (study of effect on β2-receptor)
Type: cell-based
Settings: isolated guinea pig (Hartley) trachea strips contracted with histamine to 50% of maximum; tested compounds formulated as 10^−6 M solution; 37° C.
Description: Study of the Effect of Compounds of the Invention on β2-Receptor
Sample: All tested compounds were formulated into solution of 10^−6 M.
The antagonistic effects of the compounds of the present invention on the trachea constriction induced by histamine.
Guinea pigs were sacrificed and cut through the skin and subcutaneous tissue on ventral side of neck. Trachea was removed and cut from thyroid cartilage to trachea crotch, then placed into an ice cooled oxygenated Kebs-Hensleits solution. The connective tissues around the trachea were cut off. The trachea was held by a nipper on one end and cut into trachea strips (2 cm×3 mm) in helix. The samples were then put into a bath containing 20 ml of Kebs-Hensleits solution. The lower end of the trachea strips was fastened to a vent hook and the upper end was connected to a strain gauge transducer, thus the tension change was measured by the recorder. The bath was controlled at 37° C. and oxygen gas was continuously supplied. The preload of the samples was 2 g. The samples were equilibrated in the nutrient solution for 1 hour and the solution was refreshed every 20 min.
When the tension of the samples reached a stable value, various concentrations (1×10^−10˜3×10^−4 mol·L^−1) of histamine were added to the bath. A dose-effect curve was established to determine the concentration of histamine when 50% of the maximum contraction was reached. After refreshing the solution and balancing the samples for 60 min, an amount of histamine was added to the bath. When the tension of trachea strips reached 50% of the maximum contraction, the tested compounds were added to bath, and the antagonistic effect (represented as relaxing rate) of the compounds on the isolated trachea constriction induced by histamine was calculated as below:
Relaxing rate (%)=[(Contraction intensity after histamine addition−Contraction intensity after tested compounds addition)/[…]]×100%

T1 sequence (Q8K4Z4 whole entry): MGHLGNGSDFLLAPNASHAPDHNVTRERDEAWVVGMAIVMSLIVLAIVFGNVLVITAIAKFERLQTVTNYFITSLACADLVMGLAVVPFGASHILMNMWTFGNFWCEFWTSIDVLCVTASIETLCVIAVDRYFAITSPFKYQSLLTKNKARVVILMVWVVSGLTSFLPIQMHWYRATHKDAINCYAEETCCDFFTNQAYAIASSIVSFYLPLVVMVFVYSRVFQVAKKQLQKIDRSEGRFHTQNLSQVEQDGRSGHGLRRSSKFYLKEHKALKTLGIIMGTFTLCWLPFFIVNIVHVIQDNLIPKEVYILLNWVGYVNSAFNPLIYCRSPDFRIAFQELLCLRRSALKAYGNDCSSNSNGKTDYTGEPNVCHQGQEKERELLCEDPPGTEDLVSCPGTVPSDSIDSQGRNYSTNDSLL

| SMILES | Relaxing rate (%) |
| --- | --- |
| CC(C)(C)NC(CO)c1cc(Cl)c(N)c(C#N)c1.Cl (stereo not drawn) [drawing 8] | 112.1 |
| CC(C)(C)NC(CO)c1cc(Cl)c(N)c(C#N)c1.Cl (stereo not drawn) [drawing 7] | 78.1 |
| CC(C)(C)NC(CO)c1ccc(N)c(C(F)(F)F)c1.Cl (stereo not drawn) [drawing 12] | 70.2 |
| CC(C)(C)NC(CO)c1cc(Cl)c(N)c(C#N)c1.Cl (stereo not drawn) [drawing 6] | 100.0 |

Continued, values first:

| Relaxing rate (%) | SMILES |
| --- | --- |
| 88.3 | CC(C)(C)NC(CO)c1ccc(N)c(C(F)(F)F)c1.Cl (stereo not drawn) [drawing 14] |
| 55.3 | CC(C)(C)NC(CO)c1ccc(N)c(C(F)(F)F)c1.Cl (stereo not drawn) [drawing 13] |
